Like-named read-outs stand apart in the source and are kept apart here.
Legend:
[1] = test system: MDA-MB-435S human breast cancer cells; assay: MTT assay, proliferation of MDA-MB-435S cells; assay type: cell-based; conditions: Homo sapiens, 72 h
Procedure: The experiments for evaluating the antineoplasmic activities of the compounds according to the present invention were carried out, and the compounds' antineoplasmic activities in vitro was evaluated by determining the inhibitory activities thereof against the proliferation of MDA-MB-435S human breast cancer cells.
The antineoplasmic activities were determined by using the MTT assay, which is based on the metabolic reduction of 3-(4,5-dimethylthylthiazol-2-yl)-2,5-diphenyl tetrazolium bromide (MTT). The dehydrogenases, which are related to NADP (niacinamide adenine dinucleotide phosphate, coenzyme) and present in mitochondrions of living cells, can reduce the yellow MTT to an insoluble, dark purple formazan. […] After the formazan is dissolved in DMSO, the optical density is determined on an ELISA Reader at the wavelength of 550/690 nm.
(§1) The adhered MDA-MB-4355 cells in logarithmic growth phase, were digested by 0.05% trypsogen, counted and formulated into a cell suspension with a medium. After counted, the suspension was inoculated on a 96-well plate with 3000 cells and 100 μl medium per well. The inoculated 96-well plate was placed overnight in an incubator at 37 with 5% CO2 to allow the cells to adhere to the wall. On the next day, the administration of the drugs started. Before the administration, into some of the control wells, each was added 20 μl of the MTT solution (5 mg/ml) without removing the medium therein. After incubated for 3 h, the absorption at A550/690 was recorded as the initial cell concentration. For the drug wells, each was added into 100 μl of medium containing 2 μl of compound solution. For the control wells which use DMSO as background control, each was also added into 100 μl of medium containing 2 μl of DMSO. In addition, each experiment was carried out with adriamycin as the positive control. Subsequently, the 96-well plate was incubated in an incubator at 37 with 5% CO2 for 72 h. each compound was tested in triplicate wells (6 μl of compound solution was put into a sterilized eppendorf centrifuge tube, then 300 μl of medium was added and mixed well, and the mixture was distributed into 3 wells respectively), and at six concentrations which form a gradient. 3 days (72 h) later, 40 μl of MTT solution (5 mg/ml) was put into each well directly (without sucking off the medium therein), and the plate was incubated in the incubator for 3 h and then taken out. The liquid in each well was sucked off, and then 100 μl of DMSO was put into each well to dissolve the crystal completely with slight shake. The absorbance of the solution in each well was determined at 550/690 nm on an ELISA Reader as the cell density after treated with the compound. The growth inhibition of compound against breast cancer cells MDA-MB-435S was represented by the cell survival rate, and IC50 was determined from the profile of cell survival rate vs compound concentration. The calculating formula was as follows: cell survival rate=[(cells+compound)A550/690/(cells+compound vector DMSO)A550/690]×100%

[2] = test system: Hela uterine cervix cancer cells; assay: MTT assay, Hela cells; assay type: cell-based; conditions: Homo sapiens, 72 h, 1000 cells per well
Procedure: as §1
(§2) MDA-MB-435S: human breast cancer cells; HCT116: colon cancer cells; A549: lung adenocarcinoma cells; Hela: uterine cervix cancer cells.
(§3) The tests were performed in the same manner as that of experimental example 1, except that for Hela cells, after counted, each well was seeded with 1000 cells and 100 μl of medium on a 96-well plate.

[3] = test system: lung adenocarcinoma cells A549; assay: MTT assay, A549 cells; assay type: cell-based; conditions: Homo sapiens, 72 h
Procedure: as §1, §2, §3

[4] = test system: colon cancer cells HCT116; assay: MTT assay, HCT116 cells; assay type: cell-based; conditions: Homo sapiens, HCT-116, 72 h
Procedure: as §1, §2, §3

[5] = test system: human breast cancer cells MDA-MB-435 transplanted on nude mice; assay: Antineoplasmic activity in vivo, MDA-MB-435 transplanted tumor on nude mice; conditions: MMC 5 mg/kg, d1, i.v.
Procedure: Dosage: among 3 groups, the dosages of L538 were set at 5, 10 and 20 mg/kg as the high, middle and low dosages, respectively, administrating intravenously 3 times a week; while MMC was administrated intravenously at the first day whit a dosage of 5 mg/kg.
Animals: BALB/CA nude mice, male, 40-45 days old, body weight: 18±1 g, provided by Shanghai Institute of Materia Medica, Chinese Academy of Sciences. […] Animal number in each group: 7 in negative control group, and 4 in administration group.
The amount of inoculated cells was 5×10^6. After the transplanted tumor was formed by inoculation, it was used after passed for 3 generations in nude mice.
Experimental procedure: tumor tissue in productive phase was cut into nubs of about 1.5 mm^3. Under sterile conditions, the nubs were inoculated subcutaneously in right axillary fossa of the nude mice. The diameters of the transplanted tumors on nude mice were measured by a vernier caliper. When the tumors grew up to 100-200 mm^3, the animals were divided randomly into groups. Mice in experimental groups were administered intravenously every other day. […] The total administration duration was 3 weeks. For the positive control, MMC, Mice were administered intravenously once at the first day of a week, and the total administration duration was 3 weeks. Mice in control groups were administrated physiologic saline in equivalent amount. The diameter of the tumor and weight of mice were measured twice a week. The equation for calculating the TV (tumor volume) was as follows: TV=½×a×b^2, • wherein, a is length and b is width. RTV (relative tumor volume) was calculated based on the measured results, and the equation thereof was as follows: RTV=Vt/V0 • wherein, V0 is the tumor volume measured when the mice were grouped (i.e. d0), and Vt is the tumor volume at each measurement. The evaluation index for the antitumor activity was the relative tumor proliferation rateT/C (%).
The calculation equation was as follows: T/C(%)=(TRTV/CRTV)×100, • wherein, TRTV is the RTV of therapeutic Group and CRTV is RTV of negative control group.

[6] = read-out: Cell Survival Rate IC50
[7] = note: MDA-MB-435S, read-out: IC50 (MDA-MB-435)

| Structure (SMILES) | IC50 [1, 6] [µM] | further results |
| --- | --- | --- |
| C=CCNC(=O)[C@H](C)NC(=O)[C@H](OC)[C@H](O)[C@@H](O)[C@H](O)/C=C/C(C)(C)C [Compound L372] | 3.53 |  |
| CO[C@@H](C(=O)N[C@@H](C)C(=O)NCCO)[C@H](O)[C@@H](O)[C@H](O)/C=C/C(C)(C)C [Compound L376] | 5.44 |  |
| C=CCNC(=O)[C@@H](NC(=O)[C@H](OC)[C@H](O)[C@@H](O)[C@H](O)/C=C/C(C)(C)C)C(C)C [Compound L400] | 9.68 |  |
| CCOC(=O)CNC(=O)[C@H](C)NC(=O)[C@H](OC)[C@H](O)[C@@H](O)[C@H](O)/C=C/C(C)(C)C [Compound L418] | 5.17 | IC50 [2]: 572 ± 171 nM; IC50 [3]: 1550 ± 241 nM; IC50 [4]: 1500 ± 215 nM; IC50 [1, 7]: 5.17 ± 0.941 µM |
| CO[C@@H](C(=O)N[C@@H](CC(C)C)C(=O)NCCO)[C@H](O)[C@@H](O)[C@H](O)/C=C/C(C)(C)C [Compound L418b] | 1.5 |  |
| CO[C@@H](C(=O)N[C@@H](C)C(=O)NCCOC(C)C)[C@H](O)[C@@H](O)[C@H](O)/C=C/C(C)(C)C [Compound L418c] | 13.9 |  |
| C=CCNC(=O)[C@H](CCSC)NC(=O)[C@H](OC)[C@H](O)[C@@H](O)[C@H](O)/C=C/C(C)(C)C [Compound L432] | 4.57 |  |
| CO[C@@H](C(=O)N[C@@H](C)C(=O)NCCOCC(C)C)[C@H](O)[C@@H](O)[C@H](O)/C=C/C(C)(C)C [Compound L432a] | 40 |  |
| CO[C@@H](C(=O)N[C@@H](C)C(=O)NCCCOC(C)C)[C@H](O)[C@@H](O)[C@H](O)/C=C/C(C)(C)C [Compound L432b] | 21.6 |  |
| CO[C@@H](C(=O)N[C@@H](C)C(=O)NCCOC(=O)C1CC1)[C@H](O)[C@@H](O)[C@H](O)/C=C/C(C)(C)C [Compound L444g] | 6.07 |  |
| CO[C@@H](C(=O)N[C@@H](C)C(=O)NCCOC(=O)C(C)C)[C@H](O)[C@@H](O)[C@H](O)/C=C/C(C)(C)C [Compound L446a] | 7.06 |  |
| CO[C@@H](C(=O)N[C@@H](C)C(=O)NCCCOCC(C)C)[C@H](O)[C@@H](O)[C@H](O)/C=C/C(C)(C)C [Compound L446b] | 9.56 |  |
| CO[C@@H](C(=O)N[C@@H](Cc1ccccc1)C(=O)NCCO)[C@H](O)[C@@H](O)[C@H](O)/C=C/C(C)(C)C [Compound L452] | 5.25 |  |
| CO[C@@H](C(=O)N[C@@H](C)C(=O)NCCOC(=O)C1CCC1)[C@H](O)[C@@H](O)[C@H](O)/C=C/C(C)(C)C [Compound L458] | 0.89 |  |
| CO[C@@H](C(=O)N[C@@H](C)C(=O)NCCOC(=O)C(C)(C)C)[C@H](O)[C@@H](O)[C@H](O)/C=C/C(C)(C)C [Compound L460] | 3.38 |  |
| CO[C@@H](C(=O)N[C@@H](C)C(=O)NCCOCc1ccccc1)[C@H](O)[C@@H](O)[C@H](O)/C=C/C(C)(C)C [Compound L466] | ~10 |  |
| CO[C@@H](C(=O)N[C@@H](C)C(=O)NCC(=O)NC1CCCCC1)[C@H](O)[C@@H](O)[C@H](O)/C=C/C(C)(C)C [Compound L471] | 4.79 |  |
| C#CCCCC(=O)OCCNC(=O)[C@H](C)NC(=O)[C@H](OC)[C@H](O)[C@@H](O)[C@H](O)/C=C/C(C)(C)C [Compound L471b] | 0.11 |  |
| CO[C@@H](C(=O)N[C@@H](C)C(=O)NCCOC(=O)C1CCCC1)[C@H](O)[C@@H](O)[C@H](O)/C=C/C(C)(C)C [Compound L472-3] | 0.72 |  |
| CO[C@@H](C(=O)N[C@@H](C)C(=O)NCC(=O)OC1CCCCC1)[C@H](O)[C@@H](O)[C@H](O)/C=C/C(C)(C)C [Compound L472-4] | 1.54 |  |
| CO[C@@H](C(=O)N[C@@H](C)C(=O)NCCCOC1CCCCC1)[C@H](O)[C@@H](O)[C@H](O)/C=C/C(C)(C)C [Compound L472] | > 2.5 |  |

| Structure (SMILES) | IC50 [1, 6] [µM] | further results |
| --- | --- | --- |
| CO[C@@H](C(=O)N[C@@H](C)C(=O)NCCOC(=O)[C@H]1CCCO1)[C@H](O)[C@@H](O)[C@H](O)/C=C/C(C)(C)C [Compound L474] | 8.86 |  |
| CO[C@@H](C(=O)N[C@@H](C)C(=O)NCCOC(=O)c1ccccc1)[C@H](O)[C@@H](O)[C@H](O)/C=C/C(C)(C)C [Compound L480] | 2.37 |  |
| CO[C@@H](C(=O)N[C@@H](C)C(=O)NCCNC(=O)C1CCCCC1)[C@H](O)[C@@H](O)[C@H](O)/C=C/C(C)(C)C [Compound L485] | 3.15 |  |
| C=CCNC(=O)[C@H](CCC(=O)OC(C)(C)C)NC(=O)[C@H](OC)[C@H](O)[C@@H](O)[C@H](O)/C=C/C(C)(C)C [Compound L486e] | 2.85 |  |
| CO[C@@H](C(=O)N[C@@H](Cc1c[nH]c2ccccc12)C(=O)NCCO)[C@H](O)[C@@H](O)[C@H](O)/C=C/C(C)(C)C [Compound L491] | 5.13 |  |
| CO[C@@H](C(=O)N[C@@H](C)C(=O)NCC(C)OC(=O)C1CCCCC1)[C@H](O)[C@@H](O)[C@H](O)/C=C/C(C)(C)C (stereo partly drawn) [Compound L500a] | 0.8 |  |
| CO[C@@H](C(=O)N[C@@H](C)C(=O)NCCCOC(=O)C1CCCCC1)[C@H](O)[C@@H](O)[C@H](O)/C=C/C(C)(C)C [Compound L500b] | 0.14 |  |
| CO[C@@H](C(=O)N[C@@H](C)C(=O)NCCOC(=O)CC1CCCCC1)[C@H](O)[C@@H](O)[C@H](O)/C=C/C(C)(C)C [Compound L500c] | 1.93 |  |
| CCCCC(CC)C(=O)OCCNC(=O)[C@H](C)NC(=O)[C@H](OC)[C@H](O)[C@@H](O)[C@H](O)/C=C/C(C)(C)C (stereo partly drawn) [Compound L502] | 2.55 |  |
| CO[C@@H](C(=O)N[C@H](C(=O)NCCOC(=O)C1CCCCC1)C(C)C)[C@H](O)[C@@H](O)[C@H](O)/C=C/C(C)(C)C [Compound L514c] | 2.22 |  |
| CO[C@@H](C(=O)N[C@@H](C)C(=O)NCC1CC(Cc2ccccc2)C(=O)O1)[C@H](O)[C@@H](O)[C@H](O)/C=C/C(C)(C)C (stereo partly drawn) [Compound L521] | 25.2 |  |
| CCC(C)[C@H](NC(=O)[C@H](OC)[C@H](O)[C@@H](O)[C@H](O)/C=C/C(C)(C)C)C(=O)NCCOC(=O)C1CCCCC1 (stereo partly drawn) [Compound L528a] | 3.24 |  |
| CO[C@@H](C(=O)N[C@@H](CC(C)C)C(=O)NCCOC(=O)C1CCCCC1)[C@H](O)[C@@H](O)[C@H](O)/C=C/C(C)(C)C [Compound L528b] | 2.62 |  |
| CCCC[C@H](NC(=O)[C@H](OC)[C@H](O)[C@@H](O)[C@H](O)/C=C/C(C)(C)C)C(=O)NCCOC(=O)C1CCCCC1 [Compound L528c] | 2.91 |  |
| CO[C@@H](C(=O)N[C@@H](C)C(=O)NCCOC(=O)OCCCc1ccccc1)[C@H](O)[C@@H](O)[C@H](O)/C=C/C(C)(C)C [Compound L538b] | 0.76 |  |
| C=CCNC(=O)[C@H](Cc1cn(COCc2ccccc2)cn1)NC(=O)[C@H](OC)[C@H](O)[C@@H](O)[C@H](O)/C=C/C(C)(C)C [Compound L558b] | 1.9 |  |
| CO[C@@H](C(=O)N[C@@H](C)C(=O)NCCOC(=O)CCCCCCCCCN=[N+]=[N-])[C@H](O)[C@@H](O)[C@H](O)/C=C/C(C)(C)C [Compound L572] | 0.11 |  |
| CO[C@@H](C(=O)N[C@@H](CCCCNC(=O)OC(C)(C)C)C(=O)NCCOC(=O)C1CCCCC1)[C@H](O)[C@@H](O)[C@H](O)/C=C/C(C)(C)C [Compound L643] | 1.56 |  |
| CO[C@@]12[C@H](COC(N)=O)C3=C(C(=O)C(C)=C(N)C3=O)N1C[C@@H]1N[C@@H]12 [MMC, mitomycin, reference compound] |  | T/C (%) ([5]; P <0.05): 44.3%; TV (mm^3) d21 ([5]; d0 132 ± 52): 844 ± 308 mm^3; RTV ([5]; d21): 6.6 ± 1.6; Body Weight(g) Ultimate ([5]; initial 17.8 g): 21.7 g |
| COc1cccc2c1C(=O)c1c(O)c3c(c(O)c1C2=O)C[C@@](O)(C(=O)CO)C[C@@H]3O[C@H]1C[C@H](N)[C@H](O)[C@H](C)O1 [adriamycin, reference compound] | 0.51 | IC50 [3]: 261 ± 65 nM; IC50 [4]: 110 ± 13 nM; IC50 [1, 7]: 0.51 ± 0.124 µM |
